target: T1, Human FAAH (Homo sapiens, UniProt O00519); assay: Human FAAH lysate assay (CHO cell lysate, AAMCA fluorescent substrate); format: biochemical; conditions: human FAAH lysate; read-out: Human FAAH lysate assay: IC50
T1 construct: The full length FAAH was subcloned into the mammalian expression vector, pcDEF.neo; expressed in transfected cells
T1 sequence (O00519 1-579): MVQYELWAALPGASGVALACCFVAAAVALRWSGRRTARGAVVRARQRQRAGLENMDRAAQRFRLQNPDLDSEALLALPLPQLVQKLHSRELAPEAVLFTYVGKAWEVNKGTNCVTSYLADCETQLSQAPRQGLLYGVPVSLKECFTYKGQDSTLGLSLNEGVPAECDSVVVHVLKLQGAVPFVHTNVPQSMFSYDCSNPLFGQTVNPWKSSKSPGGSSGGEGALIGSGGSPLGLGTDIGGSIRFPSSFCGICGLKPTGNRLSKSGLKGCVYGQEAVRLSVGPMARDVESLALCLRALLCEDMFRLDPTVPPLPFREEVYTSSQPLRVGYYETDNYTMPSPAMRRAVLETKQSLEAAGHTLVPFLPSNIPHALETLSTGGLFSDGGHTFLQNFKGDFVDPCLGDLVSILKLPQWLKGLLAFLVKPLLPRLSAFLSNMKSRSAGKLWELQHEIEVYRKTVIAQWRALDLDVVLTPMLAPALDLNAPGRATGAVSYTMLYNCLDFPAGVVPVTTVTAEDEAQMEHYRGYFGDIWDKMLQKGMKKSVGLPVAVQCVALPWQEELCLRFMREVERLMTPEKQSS
Text: To assist in assay development stable cell lines for human, murine and rat full length FAAH were developed. Human FAAH cDNA (Accession No: NM-001441.1) was purchased from Origene (Rockville, Md.). The full length FAAH was subcloned into the mammalian expression vector, pcDEF.neo, using XbaI and EcoRI restriction sites and used for stable cell line generation. CHO cells expressing FAAH were used to prepare either crude cell lysate or microsome fractions. To harvest cells, tissue culture media was decanted, the monolayer washed three times with Ca^++Mg^++ free PBS and cells recovered after 15 min in enzyme free dissociation media (Millipore Corp, Billerica, Mass.). Cells were collected by centrifuging at 2000 rpm for 15 min. and the cell pellet re-suspended with 50 mM HEPES (pH 7.4) containing 1 mM EDTA and the protease inhibitors aprotinin (1 mg/ml) and leupeptin (100 μM). […] The pellet containing FAAH-enriched microsomes was re-suspend in 50 mM HEPES, (pH 7,4) 1 mM EDTA, and any remaining DNA sheared by passage of material through a 23 gauge needle and aliquots of enzyme were store at -80° C. prior to use. […] (American Radiolabeled Chemicals; 1 mCi/ml) with FAAH (Life Sciences (1995), 56, 1999-2005 and Journal of Pharmacology and Experimented Therapeutics (1997), 283, 729-734), Analytical. Biochemistry (2003), 318, 270-5. […] Analytical. Biochemistry (2005). 343, 143-51 […] Fluorescent release as a measure of FAAH activity was monitored by reading the plate in a CytoFluor Multiplate Reader ([…]). Whole cell assay is conducted with cells harvested after rinsing tissue culture flasks three times with Ca^++Mg^++ free PBS, incubating for 10 min in Enzyme free dissociation media and centrifuging for 5 minutes at 1,000 rpm in table top centrifuge. Cells are resuspended in assay buffer at desired cell number in (4×10^4 cells/assay in 96-well format; 1×10^4 cells/assay in 384-well format) and assayed as described. […] The reaction was terminated by addition of 2 volumes of chloroform:methanol (1:1) and mixed by vortexing. […] K., et al. A fluorescence-based assay for fatty acid amide hydrolase compatible with high-throughput screening. Anal. Biochem. 343:143-51 (2005) • Wilson S. J., et l. A high-throughput-compatible assay for determining the activity of fatty acid amide hydrolase. Anal Biochem. 318:270-5 (2003).

`Cn1c(-c2ccn(CC(C)(C)O)n2)nc(-c2ccc(C#N)cc2)c1Sc1ccc(Cl)cc1` [Example 145, 4-{5-[(4-chlorophenyl)sulfanyl]-2-[1-(2-hydroxy-2-methylpropyl)-1H-pyrazol-3-yl]-1-methyl-1H-imidazol-4-yl}benzonitrile] and `Cn1c(-c2cccs2)nc(-c2ccc(S(C)(=O)=O)cc2)c1Sc1ccc(Cl)cc1` [Example 137, 5-[(4-chlorophenyl)sulfanyl]-1-methyl-4-[4-(methylsulfonyl)phenyl]-2-(thiophen-2-yl)-1H-imidazole] are within 1.5-fold of each other in IC50: 0.0231 µM for the first, 0.0165 µM for the second.

Going from `CC(C)(O)c1ccc(-c2nc3c4ncccc4ccn3c2Sc2ccc(Cl)cc2)cc1` [Example 130, 2-(4-{3-[(4-chlorophenyl)sulfanyl]imidazo[1,2-h][1,7]naphthyridin-2-yl}phenyl)propan-2-ol] to `CCOC(C)(C)c1nc(-c2ccc(-c3ncon3)cc2)c(Sc2ccc(Cl)cc2)n1C` [Example 147, 3-(4-{5-[(4-chlorophenyl)sulfanyl]-2-(2-ethoxypropan-2-yl)-1-methyl-1H-imidazol-4-yl}phenyl)-1,2,4-oxadiazole], the IC50 falls from 0.0471 µM to 0.0244 µM (1.9-fold).

`CCn1nccc1-c1nc(-c2ccc(-c3ncon3)cc2)c(Sc2ccc(Cl)cc2)n1C` [Example 141, 3-(4-{5-[(4-chlorophenyl)sulfanyl]-2-(1-ethyl-1H-pyrazol-5-yl)-1-methyl-1H-imidazol-4-yl}phenyl)-1,2,4-oxadiazole] and `Cn1c(-c2cc(C3CC3)on2)nc(-c2ccc(C(C)(C)O)nc2)c1Sc1ccc(Cl)cn1` [Example 148, 2-(5-{5-[(5-chloropyridin-2-yl)sulfanyl]-2-(5-cyclopropylisoxazol-3-yl)-1-methyl-1H-imidazol-4-yl}pyridin-2-yl)propan-2-ol] are within 1.5-fold of each other in IC50: 0.0679 µM for the first, 0.091 µM for the second.

same assay, conditions: human FAAH lysate; read-out: hFAAH lysate IC50

`Cn1c(-c2ccsc2)nc(-c2ccc(S(C)(=O)=O)cc2)c1Sc1ccc(Cl)cc1` [Example 135] and `Cn1c(-c2ccccn2)nc(-c2ccc(-c3cccs3)cc2)c1Sc1ccc(Cl)cc1` [Example 121] are within 1.5-fold of each other in IC50: 0.0259 µM for the first, 0.0185 µM for the second.

Going from `Cn1c(-c2ccc(F)cc2)nc(-c2ccc(C(C)(C)O)nc2)c1Sc1ccc(Cl)cc1F` [Example 113] to `Cn1c(-c2ccccn2)nc(-c2ccc(C(C)(C)O)nc2)c1Sc1ccc(Cl)cc1F` [Example 110], the IC50 falls from 0.0679 µM to 0.0337 µM (2-fold).

Compared with `Cn1c(-c2ccccn2)nc(-c2ccc(-c3ncco3)cc2)c1Sc1ccc(Cl)cn1` [Example 120], `Cn1c(-c2ccccn2)nc(-c2ccc(-c3ccnnc3)cc2)c1Sc1ccc(Cl)cn1` [Example 122] is 1.7-fold lower in IC50: 0.0264 µM for the first, 0.0157 µM for the second. The second is the more potent here.

Compared with `Cn1c(-c2ccccn2)nc(-c2ccc(C(C)(C)O)nc2)c1Sc1ccc(F)c(F)c1` [Example 107], `Cn1c(-c2ccccn2)nc(-c2ccc(C(C)(C)O)nc2)c1Sc1ccc(Cl)cn1` [Example 106] is 1.6-fold lower in IC50: 0.0602 µM for the first, 0.0378 µM for the second.
